Consider 90 compounds from a melting point compilation (Tetko et al.; mined from patent text by program, amines drawn as free bases though some values may be those of a salt).

Broadly, the melting point is the temperature, or range, at which the solid turns liquid.

Each structure is given as a SMILES string.

For the compound `CCCCCCC1=C(O)C(=O)CO1`, the melting point was 51 to 52 °C.

Turning to `CCCCOC(=O)/C=C/c1ccc2c(=O)n(CC(C)C)c(CNC(=O)OC(C)(C)C)c(-c3ccc(Cl)cc3)c2c1`, the melting point is 149 to 150 °C. In turn, `CS(=O)(=O)c1cccc(Cc2cc3cccc(-c4cccc(C(=O)NCC(N)=O)c4)c3s2)c1` displayed a melting point of 189 to 193 °C. The result for `CCS(=O)(=O)N[C@H](C(=O)NCCc1ccc(OCc2ccccc2)c(OC)c1)C(C)C` reads 140 to 142 °C.

`O=C(CCCCCN1CCN(c2cccc3c2OCCCO3)CC1)N1Cc2ccccc2C1` returned a melting point of 131 °C.

In turn, `COc1ccc(Cc2c(C)c3c(N)nc(N)nc3[nH]c2=O)cc1OC` came in with a melting point of 346 to 348 °C.

The compound `O=C(NCCCCN1CCC(c2ccc3c(c2)OCO3)CC1)c1ccc(NC(=O)c2ccc(Cl)cc2)cc1` registered a melting point of 238 to 248 °C. Compound `OCC1(n2nc3ccccc3n2)OCC1c1ccccc1` (stereo not given) displayed a melting point of 119 to 123 °C. On to `COc1cccc(Cl)c1-c1cc2c(c3c1C(=O)NC3=O)c1cc(O)ccc1n2CCCBr`, for which the melting point fell in the range of 286 to 288 °C. In turn, `NC(=O)N(O)CC1CCCCCC1` registered a melting point of 110 to 112 °C. As for `Cc1ccccc1-c1c(NC(=O)Nc2c(C)cccc2C(C)C)c(=O)n(C)c2ccc(Cl)cc12`, the melting point fell in the range of 195 to 196 °C. Turning to `COc1cc(Cl)c(N)cc1-c1nc(C)c(-c2cccnc2)[nH]1`, the melting point fell in the range of 173 to 175 °C.

With `OCCc1coc(-c2ccc3ccccc3c2)n1`, the melting point is 96 to 98 °C. Then `CCN1C(=O)C(=O)N(c2c(C)cccc2C)C1=S`, with 103 to 105 °C; and `Cc1ncccc1NC(=NC#N)NC(NC(=O)Cc1ccc(Cl)cc1)C(C)(C)C` (stereo not given), with 180 to 181 °C; and `O=C(Nc1ccc(-n2nc(C3CC3)cc2C2CC2)cc1)c1ccccc1`, with 133 to 138 °C. Then `CCOC(=O)c1c(Cl)nc2cc(Cl)c(F)cc2c1CCl`, with greater than 250 °C; and `CCCCNc1c(C#N)cnc2cc(OCCOC)c(OC)cc12`, with 99 to 102 °C. The result for `CNC(Cc1ccccc1)c1nc(C(=O)NCc2ccccc2)no1` (stereo not given) reads 128 °C; that for `O=C(O)CCCCCCCCCCCCC(=O)OCc1ccccc1`, 73.5 to 74 °C.

On to `CCCOc1ccc(NC=C(C(=O)OCC)C(=O)OCC)cc1C1=NC(=O)C2=NN=NC2=N1`, for which the melting point was 226 to 227 °C. The compound `O=C(O)CCN1CCN(c2ccccc2Cl)CC1` gave a melting point of 210 to 213 °C. Then `O=C1CCCc2nc3ccccc3c(NCCCC(c3ccccc3)c3ccccc3)c21`, with 86 to 88 °C.

`Cn1ccc(Nc2n[nH]c3c(OCCc4ccccn4)cc(-c4ncccc4Cl)cc23)n1` yielded a melting point of 89 to 91 °C. The result for `COc1ccc(CCOCCCCCCNCC(O)c2ccc(O)c(CCO)c2)cc1` (stereo not given) reads 84 to 85 °C.

`CCn1c(CC#N)ccc1C(=O)c1ccc(Cl)cc1` came in with a melting point of 145 to 147 °C. The result for `CCCN1CCC(C2=C(C#N)C(c3cccc4nonc34)c3c[nH]nc3N2)CC1` (stereo not given) reads 246 °C; that for `C=CCNC(=O)NC(CCC)(CCC)CCC`, 66 °C; that for `CC1Cc2cc3c(cc2C(c2ccc(NC=O)cc2)=NN1C=O)OCO3` (stereo not given), 193 to 195 °C. The result for `O=[N+]([O-])c1ccc(N2CCN(c3ccc(O)cc3)CC2)cc1` reads 260 °C. Then `CC(C)[C@@H](C(N)=O)C(=O)O`, with 174 °C; and `CC(=O)SCC1CCCCCCCSC[C@@H](C(=O)OCc2ccccc2)NC1=O` (stereo not given in full), with 192 to 193 °C; and `COc1ccc(-c2cncn2-c2ccc(S(C)(=O)=O)cc2)c(Cl)n1`, with 192 to 198 °C. In turn, `Cc1cc(OCc2ncc([N+](=O)[O-])n2C)ccc1S(C)=O` (stereo not given) had a melting point of 121 °C. Then `COc1cc(N(C)C)c(Cl)cc1C(=O)NCC1CN(CCCOc2ccc(Cl)cc2)CCO1` (stereo not given), with 128 to 130 °C. The result for `CCCC1CCC=CCCCC(=O)OCCN1C(=O)OCC1c2ccccc2-c2ccccc21` (stereo not given) reads 148 to 150 °C; that for `COc1cc(N(C(=O)C[C@H](N)C(=O)O)S(=O)(=O)c2ccc3c(ccn3C)c2)cc(OC)c1OC`, 156 to 159 °C. The result for `COc1ccc(CS[C@H]2C[C@@H](C(=O)N3CCN(CCO)CC3)N(C(=O)OCc3ccc([N+](=O)[O-])cc3)C2)cc1` reads 140 to 141 °C. For `Cc1nccn1CC1CCc2c(c3ccccc3n2C)/C1=N/O` (stereo not given), the melting point is 231 to 233 °C. With `COCc1c(C(=O)OC(C)C)ncc2[nH]c3ccc(I)cc3c12`, the melting point was in the range of 233 to 235 °C. Then `Clc1ccc(-c2coc(CCCI)n2)cc1`, with 49 to 50 °C. `CC(=NN=c1[nH]cccc1Cl)C(F)(F)F` yielded a melting point of 64 to 64.5 °C.

`Nc1ccnc(/C=C/c2ccccc2)c1` returned a melting point of 164 to 165 °C. As for `CCc1csc2nc(C(=O)OC)cn12`, the melting point lay in the range of 147 to 149 °C.

In turn, `O=c1[nH]c2ncc(-c3ccc(O)cc3)nc2n1CC1CCCN1` (stereo not given) returned a melting point of 178 to 180 °C.

For `CC(=O)OCC(O)(CN(C)S(=O)(=O)c1cc(C)ccc1C)c1ccccc1` (stereo not given), the melting point fell in the range of 84 to 85 °C. For `CCCCc1nc(Cl)c(C(=O)O)n1Cc1ccc2oc(-c3ccccc3-c3nnn[nH]3)cc2c1`, the melting point was 209 to 210 °C. Then `COC(=O)C=CC(=O)c1cc(Cl)ccc1N`, with 111 to 112 °C; and `CC(=O)Nc1ccc(O[C@H](c2ccc([N+](=O)[O-])cc2)[C@@H](O)CO)cc1`, with 110 to 111 °C; and `CC(C)n1c(=O)[nH]c2ncc(-c3ccc(O)cc3)nc21`, with 323 to 324 °C.

`CC1CN(c2ccccc2)N=C1N` (stereo not given) registered a melting point of 83 to 84 °C. The result for `COc1ccccc1C1(c2ccc(N(C)C)cc2)OC(=O)c2cc(N(C)C)ccc21` (stereo not given) reads 215 to 216 °C; that for `O=C(O)CC1c2ncccc2S(=O)(=O)N1c1ccccc1` (stereo not given), 123 to 128 °C; that for `CN(C)c1ccc(C=NCCc2cccs2)cc1`, 76.8 to 77 °C. Compound `Cn1cc(C(=O)c2ccc(Cl)cc2)cc1C(=O)CN1CCCCC1` had a melting point of 129 to 130 °C. The result for `CC1(C)CC(c2ccccn2)c2cc(C#N)ccc2O1` (stereo not given) reads 114 to 115 °C; that for `COC(=O)c1cccnc1SCc1cccc(OC)c1`, 69 to 70 °C; that for `CCOc1ccccc1-c1nc2c(OC)cccc2c(=O)[nH]1`, 198 to 199 °C. Then `O=C(NCc1ccncc1)c1cc2ccnc(N(Cc3ccccc3)Cc3ccccc3)c2[nH]1`, with 119 to 120 °C. The result for `Cc1cc(C)cc(Sc2c(C(C)C)c(=O)[nH]c(=O)n2CC2=CC(CO)C(CO)C2)c1` (stereo not given) reads 136 to 137 °C; that for `CCCc1c(OCCCCOc2cccc(Sc3ccc(C(=O)O)cc3)c2)ccc(C(C)=O)c1O`, 100 to 102 °C; that for `CCCC(CCC)(CCC(N)=S)C(CCC)(CCC)C(N)=S`, 87 to 88 °C. Compound `Nc1c(F)c(N2CCCCCC2)c(F)c2c1c(=O)c(C(=O)O)cn2C1CC1` had a melting point of 234 to 236 °C.

With `COc1cc2c(CC#N)c[nH]c2cc1F`, the melting point fell in the range of 97 to 98 °C.

Turning to `CCC(O)c1cc(-c2ccccc2)no1` (stereo not given), the melting point lay in the range of 101 to 102 °C. `Cc1c(C)c2c(c(C)c1NCc1cccs1)C(c1ccc(C(C)C)cc1)C(C)(C)O2` (stereo not given) yielded a melting point of 101 to 103 °C. Then `c1cc(C2OCCO2)ccc1C1OCCO1`, with 86 to 89 °C. Then `CCOC(=O)COc1cc2cc(C3CCCCC3)sc2c(Cl)c1Cl`, with 73 to 75 °C. `N[C@@H]1C[C@H]2c3ccccc3-c3cccc(c32)NC1=O` (relative stereo) showed a melting point of 104 to 107 °C. The result for `Cc1cc(Br)cc(/C=N/O)c1F` reads 126 to 127 °C. The result for `COc1cc(N)c(Cl)cc1C(=O)NCC1CCN(CCCCC(=O)c2ccccc2)CC1` reads 100 to 102 °C; that for `CN1C(c2cccc(F)c2)c2ccccc2S1(=O)=O` (single isomer, unassigned; (+)), 147 °C; that for `O=C(O)C1=C(c2cccs2)c2cc(Cl)ccc2OC1C(F)(F)F` (stereo not given), 201 to 207 °C. Consider `C[Si](C)(C)NC(=O)c1ccccc1`, for which the melting point is 111 to 115 °C. Take `COc1ccc(C2=NN(c3ccc(S(N)(=O)=O)cc3)C(=O)[C@H]3CC=CC[C@@H]23)cc1OC` (relative stereo): the melting point was 181 to 183 °C. Then `OCCc1ccc(-c2ccc(F)cc2F)c(F)c1`, with 44 to 45 °C; and `O=[N+]([O-])c1cc(Cl)c2cccnc2c1O`, with 201 to 202 °C; and `O=C(c1ccc(C(F)(F)F)cc1Sc1ccccc1)c1cnoc1C1CC1`, with 115 °C.

Compound `Cn1cncc1C(O)(c1ccc(Cl)cc1)c1ccc2c(c1)c(-c1nc(-c3ccccc3)cs1)cc(=O)n2C` (stereo not given) displayed a melting point of 200 °C. On to `CCCCCCc1ccc(-c2ccc(C(=O)Oc3ccc(C(=O)O)c(Cl)c3)cc2)cc1`, for which the melting point lay within 164 to 166 °C.

As to `CNC(=S)n1nc(N)nc1N`, the melting point lay within 176 to 178 °C. The result for `C/C(Br)=C(\Br)c1cn(-c2c(Cl)cc(C(F)(F)F)cc2Cl)nc1C#N` reads 134 to 135 °C; that for `Cn1cc(C(=O)NC(=O)N2CC2C#N)c([N+](=O)[O-])n1` (stereo not given), 58 to 64 °C. Then `Cc1c(F)c(F)cc2c1c(=O)c(C(=O)O)cn2-c1cc(N)c(F)cc1F`, with greater than 270 °C; and `COc1ccc(-c2cccs2)c2c1c(CCN(C)C)cn2C`, with 131 to 133 °C. Then `CC(C)n1nc(-c2sc(C(N)=O)nc2-c2cccc(F)c2)ccc1=O`, with 248 to 250 °C. As to `Cc1cc(C)cc(COC(=O)C(Cc2c[nH]c3ccccc23)NC(=O)OC(C)(C)C)c1` (stereo not given), the melting point is 152 to 153 °C. The result for `O=C(O)c1ccc(COc2ccc3cc(-c4ccc(-c5ccccc5)n4Cc4ccc(C(F)(F)F)cc4)ccc3c2)cc1` reads 228 to 229 °C; that for `COc1ccc(OC(=O)[C@H](C)NC(=O)OCc2ccccc2)cc1`, 128 to 129 °C. Then `CC1(C(=O)c2c[nH]c3ncc(-c4ccc(N5CCOCC5)cc4)nc23)CCCCC1`, with 233 to 235 °C.
